In ChEMBL document CHEMBL5291721, “A preclinical secondary pharmacology resource illuminates target-adverse drug reaction associations of marketed drugs” (Nat Commun, 2023):

Experiments:
Adenosine receptor A1 = target: T1, Adenosine receptor A1 (Homo sapiens, UniProt P30542)
T1 sequence (P30542 whole entry): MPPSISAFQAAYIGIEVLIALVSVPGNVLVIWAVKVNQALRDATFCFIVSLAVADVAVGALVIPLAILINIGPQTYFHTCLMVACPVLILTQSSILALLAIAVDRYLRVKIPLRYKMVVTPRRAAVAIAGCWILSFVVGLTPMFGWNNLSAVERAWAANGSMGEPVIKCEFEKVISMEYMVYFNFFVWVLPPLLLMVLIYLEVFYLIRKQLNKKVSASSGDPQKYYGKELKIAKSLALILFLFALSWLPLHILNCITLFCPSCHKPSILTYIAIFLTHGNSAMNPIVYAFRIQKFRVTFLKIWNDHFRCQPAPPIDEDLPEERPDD

[1] = target: Sodium-dependent noradrenaline transporter (Homo sapiens, UniProt P23975)
Sequence of Sodium-dependent noradrenaline transporter (P23975 whole entry): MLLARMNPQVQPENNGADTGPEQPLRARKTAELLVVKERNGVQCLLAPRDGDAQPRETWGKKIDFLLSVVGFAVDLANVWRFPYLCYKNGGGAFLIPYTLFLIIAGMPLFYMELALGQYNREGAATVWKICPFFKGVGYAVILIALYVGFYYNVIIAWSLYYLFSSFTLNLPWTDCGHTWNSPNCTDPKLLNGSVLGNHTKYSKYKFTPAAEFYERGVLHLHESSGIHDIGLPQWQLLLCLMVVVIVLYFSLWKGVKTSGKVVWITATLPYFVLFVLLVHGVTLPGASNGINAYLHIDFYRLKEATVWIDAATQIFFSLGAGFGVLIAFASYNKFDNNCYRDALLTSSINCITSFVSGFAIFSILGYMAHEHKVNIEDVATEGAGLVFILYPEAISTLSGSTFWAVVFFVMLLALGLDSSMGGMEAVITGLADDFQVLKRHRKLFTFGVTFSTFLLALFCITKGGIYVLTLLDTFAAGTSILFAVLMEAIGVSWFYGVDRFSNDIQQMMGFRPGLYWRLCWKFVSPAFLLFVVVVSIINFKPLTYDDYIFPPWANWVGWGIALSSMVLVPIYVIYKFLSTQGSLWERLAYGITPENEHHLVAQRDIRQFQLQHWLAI

Histamine H3 receptor = Histamine H3 receptor (Homo sapiens, UniProt Q9Y5N1)
Sequence of Histamine H3 receptor (Q9Y5N1 whole entry): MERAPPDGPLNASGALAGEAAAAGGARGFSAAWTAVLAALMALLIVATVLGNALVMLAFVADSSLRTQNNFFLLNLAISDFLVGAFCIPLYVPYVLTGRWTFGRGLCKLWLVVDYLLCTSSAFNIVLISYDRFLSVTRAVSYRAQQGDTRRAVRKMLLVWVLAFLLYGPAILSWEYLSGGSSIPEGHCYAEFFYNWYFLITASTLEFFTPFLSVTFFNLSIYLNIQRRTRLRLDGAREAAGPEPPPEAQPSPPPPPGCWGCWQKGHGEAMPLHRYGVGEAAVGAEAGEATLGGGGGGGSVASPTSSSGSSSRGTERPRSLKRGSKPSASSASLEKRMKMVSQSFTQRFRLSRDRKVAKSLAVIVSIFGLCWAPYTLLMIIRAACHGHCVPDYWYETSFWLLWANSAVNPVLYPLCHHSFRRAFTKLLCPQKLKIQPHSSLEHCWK

[2] = target: T2, Alpha-2B adrenergic receptor (Homo sapiens, UniProt P18089)
T2 sequence (P18089 whole entry): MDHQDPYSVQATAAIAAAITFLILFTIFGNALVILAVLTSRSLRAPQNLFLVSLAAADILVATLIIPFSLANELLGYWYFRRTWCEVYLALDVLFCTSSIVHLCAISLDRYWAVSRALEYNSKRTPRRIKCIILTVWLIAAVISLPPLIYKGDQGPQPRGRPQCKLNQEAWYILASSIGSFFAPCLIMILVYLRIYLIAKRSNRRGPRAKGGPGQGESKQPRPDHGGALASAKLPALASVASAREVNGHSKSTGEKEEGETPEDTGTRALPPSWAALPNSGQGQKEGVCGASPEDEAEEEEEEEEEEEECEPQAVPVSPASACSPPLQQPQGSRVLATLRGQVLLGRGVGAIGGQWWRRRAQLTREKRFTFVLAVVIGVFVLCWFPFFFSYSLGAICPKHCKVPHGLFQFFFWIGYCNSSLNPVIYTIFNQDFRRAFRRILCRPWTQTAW

Mu-type opioid receptor [3] = target: T3, Mu-type opioid receptor (Homo sapiens, UniProt P35372)
T3 sequence (P35372 whole entry): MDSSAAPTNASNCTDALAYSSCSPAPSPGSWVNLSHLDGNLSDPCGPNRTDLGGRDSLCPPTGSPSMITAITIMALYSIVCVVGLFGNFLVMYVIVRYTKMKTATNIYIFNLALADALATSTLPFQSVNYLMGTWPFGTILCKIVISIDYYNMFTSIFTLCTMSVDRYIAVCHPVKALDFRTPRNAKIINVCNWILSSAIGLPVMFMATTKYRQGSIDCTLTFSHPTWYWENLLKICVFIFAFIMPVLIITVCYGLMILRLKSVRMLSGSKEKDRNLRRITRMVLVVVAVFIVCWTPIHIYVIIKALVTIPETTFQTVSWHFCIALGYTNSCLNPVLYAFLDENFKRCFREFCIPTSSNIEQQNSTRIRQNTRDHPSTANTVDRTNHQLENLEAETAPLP

[4] = target: Sodium-dependent serotonin transporter (Homo sapiens, UniProt P31645)
Sequence of Sodium-dependent serotonin transporter (P31645 whole entry): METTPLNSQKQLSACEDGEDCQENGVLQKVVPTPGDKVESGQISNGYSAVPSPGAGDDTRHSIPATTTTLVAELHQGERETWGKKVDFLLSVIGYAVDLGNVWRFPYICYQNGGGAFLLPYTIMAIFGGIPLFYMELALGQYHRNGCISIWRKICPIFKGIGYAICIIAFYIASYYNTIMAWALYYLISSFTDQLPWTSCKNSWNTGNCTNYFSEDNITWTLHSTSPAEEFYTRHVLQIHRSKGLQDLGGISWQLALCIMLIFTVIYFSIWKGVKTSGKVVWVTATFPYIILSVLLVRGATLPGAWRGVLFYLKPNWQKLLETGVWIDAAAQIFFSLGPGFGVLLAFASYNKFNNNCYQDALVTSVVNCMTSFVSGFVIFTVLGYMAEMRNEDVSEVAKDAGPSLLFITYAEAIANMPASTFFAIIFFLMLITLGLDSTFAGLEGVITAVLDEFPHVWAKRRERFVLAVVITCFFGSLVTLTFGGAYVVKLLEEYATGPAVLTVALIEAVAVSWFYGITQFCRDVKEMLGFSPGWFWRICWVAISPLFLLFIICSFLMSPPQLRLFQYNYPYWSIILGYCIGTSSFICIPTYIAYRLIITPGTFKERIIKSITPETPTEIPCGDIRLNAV

Cannabinoid receptor 1 [5] = target: T4, Cannabinoid receptor 1 (Homo sapiens, UniProt P21554)
T4 sequence (P21554 whole entry): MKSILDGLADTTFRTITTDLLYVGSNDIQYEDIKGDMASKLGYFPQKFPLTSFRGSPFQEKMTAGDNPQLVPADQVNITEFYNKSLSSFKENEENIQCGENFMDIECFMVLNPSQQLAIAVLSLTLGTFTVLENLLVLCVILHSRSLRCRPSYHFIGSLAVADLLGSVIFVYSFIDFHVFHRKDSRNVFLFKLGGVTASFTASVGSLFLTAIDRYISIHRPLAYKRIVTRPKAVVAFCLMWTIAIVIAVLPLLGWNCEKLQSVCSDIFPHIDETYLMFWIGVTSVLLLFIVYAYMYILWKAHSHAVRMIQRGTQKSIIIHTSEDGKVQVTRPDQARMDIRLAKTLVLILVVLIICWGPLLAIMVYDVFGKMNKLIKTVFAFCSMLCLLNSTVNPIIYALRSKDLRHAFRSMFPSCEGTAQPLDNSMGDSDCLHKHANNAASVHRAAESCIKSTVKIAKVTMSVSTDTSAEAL

Glucocorticoid receptor = target: T5, Glucocorticoid receptor (Homo sapiens, UniProt P04150)
T5 sequence (P04150 whole entry): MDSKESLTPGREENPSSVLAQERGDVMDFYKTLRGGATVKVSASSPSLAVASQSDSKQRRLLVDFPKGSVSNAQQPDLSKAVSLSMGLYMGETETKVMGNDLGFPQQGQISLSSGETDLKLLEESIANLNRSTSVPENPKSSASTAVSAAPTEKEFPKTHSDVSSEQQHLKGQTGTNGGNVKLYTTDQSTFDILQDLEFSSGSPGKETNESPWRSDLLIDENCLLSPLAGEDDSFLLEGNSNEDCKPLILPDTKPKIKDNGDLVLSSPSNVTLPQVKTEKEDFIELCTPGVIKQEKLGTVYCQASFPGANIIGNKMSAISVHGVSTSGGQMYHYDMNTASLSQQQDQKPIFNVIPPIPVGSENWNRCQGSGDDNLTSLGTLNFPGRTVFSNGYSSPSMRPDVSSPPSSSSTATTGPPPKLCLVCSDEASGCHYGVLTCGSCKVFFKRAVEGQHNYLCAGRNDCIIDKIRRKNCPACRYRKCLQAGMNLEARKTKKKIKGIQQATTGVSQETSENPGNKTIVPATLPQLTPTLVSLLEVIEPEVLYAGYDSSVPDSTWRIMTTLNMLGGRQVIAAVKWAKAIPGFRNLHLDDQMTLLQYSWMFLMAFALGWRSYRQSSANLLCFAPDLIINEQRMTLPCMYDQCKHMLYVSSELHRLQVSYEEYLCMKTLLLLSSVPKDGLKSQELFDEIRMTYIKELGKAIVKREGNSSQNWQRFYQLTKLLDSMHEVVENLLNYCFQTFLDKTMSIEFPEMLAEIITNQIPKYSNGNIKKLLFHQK

Melanocortin receptor 4 = Melanocortin receptor 4 (Homo sapiens, UniProt P32245)
Sequence of Melanocortin receptor 4 (P32245 whole entry): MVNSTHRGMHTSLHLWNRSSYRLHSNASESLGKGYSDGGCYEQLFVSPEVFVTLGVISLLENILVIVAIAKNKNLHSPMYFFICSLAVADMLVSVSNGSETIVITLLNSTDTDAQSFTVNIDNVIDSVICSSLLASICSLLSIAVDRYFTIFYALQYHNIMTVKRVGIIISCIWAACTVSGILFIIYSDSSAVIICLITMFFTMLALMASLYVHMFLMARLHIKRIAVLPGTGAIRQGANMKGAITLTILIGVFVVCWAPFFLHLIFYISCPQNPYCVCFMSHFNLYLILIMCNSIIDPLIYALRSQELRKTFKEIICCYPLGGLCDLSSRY

[6] = target: Muscarinic acetylcholine receptor M3 (Homo sapiens, UniProt P20309)
Sequence of Muscarinic acetylcholine receptor M3 (P20309 whole entry): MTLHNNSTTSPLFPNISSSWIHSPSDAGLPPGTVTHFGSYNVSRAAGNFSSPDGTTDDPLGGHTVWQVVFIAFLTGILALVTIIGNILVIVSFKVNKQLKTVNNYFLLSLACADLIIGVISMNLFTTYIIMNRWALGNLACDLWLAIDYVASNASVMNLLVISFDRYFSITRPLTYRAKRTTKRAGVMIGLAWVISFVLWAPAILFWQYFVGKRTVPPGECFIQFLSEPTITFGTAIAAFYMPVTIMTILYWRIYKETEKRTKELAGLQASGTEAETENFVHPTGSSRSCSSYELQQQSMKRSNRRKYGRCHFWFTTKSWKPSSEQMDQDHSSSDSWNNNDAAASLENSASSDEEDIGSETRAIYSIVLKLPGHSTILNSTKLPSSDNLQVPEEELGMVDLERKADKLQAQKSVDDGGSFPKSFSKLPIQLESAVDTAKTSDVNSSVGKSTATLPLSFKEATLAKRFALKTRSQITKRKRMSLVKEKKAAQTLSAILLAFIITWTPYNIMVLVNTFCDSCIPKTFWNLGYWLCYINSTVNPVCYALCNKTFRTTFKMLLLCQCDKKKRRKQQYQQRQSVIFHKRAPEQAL

Mu-type opioid receptor [7] = target: T3, Mu-type opioid receptor; test: biochemical; type: functional
[8] = target: T6, Alpha-1A adrenergic receptor (Homo sapiens, UniProt P35348); type: functional, cell-based
T6 sequence (P35348 whole entry): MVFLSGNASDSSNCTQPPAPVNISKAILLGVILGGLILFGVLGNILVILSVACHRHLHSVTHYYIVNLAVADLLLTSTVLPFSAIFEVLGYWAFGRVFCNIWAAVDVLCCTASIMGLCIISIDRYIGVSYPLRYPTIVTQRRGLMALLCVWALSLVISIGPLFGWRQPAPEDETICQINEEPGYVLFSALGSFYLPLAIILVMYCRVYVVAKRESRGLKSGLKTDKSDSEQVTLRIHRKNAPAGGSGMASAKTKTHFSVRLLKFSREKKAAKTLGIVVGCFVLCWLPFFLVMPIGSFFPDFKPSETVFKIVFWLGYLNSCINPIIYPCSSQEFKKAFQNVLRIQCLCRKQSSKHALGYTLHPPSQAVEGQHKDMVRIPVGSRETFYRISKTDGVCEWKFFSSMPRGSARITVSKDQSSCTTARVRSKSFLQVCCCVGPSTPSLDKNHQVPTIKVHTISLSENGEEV

[9] = target: T6, Alpha-1A adrenergic receptor; type: functional, cell-based; remark: listed apart in the source
Cannabinoid receptor 1 [10] = target: T4, Cannabinoid receptor 1; type: functional, cell-based
Also: assay procedure not described here.

| SMILES | AC50 (Adenosine receptor A1) [µM] | AC50 [1] [µM] | AC50 (Histamine H3 receptor) [µM] | AC50 [2] [µM] | AC50 (Mu-type opioid receptor [3]) [µM] | AC50 [4] [µM] | AC50 (Cannabinoid receptor 1 [5]) [µM] | AC50 (Glucocorticoid receptor) [µM] | AC50 (Melanocortin receptor 4) [µM] | AC50 [6] [µM] | AC50 (Mu-type opioid receptor [7]) [µM] | AC50 [8] [µM] | AC50 [9] [µM] | AC50 (Cannabinoid receptor 1 [10]) [µM] |
| --- | --- | --- | --- | --- | --- | --- | --- | --- | --- | --- | --- | --- | --- | --- |
| CCCCCCCC(=O)N[C@H](CN1CCCC1)[C@H](O)c1ccc2c(c1)OCCO2 | > 30 |  |  |  |  |  |  |  |  |  |  |  |  |  |
| C[C@]12CC[C@H](O)CC1=CC[C@@H]1[C@@H]2CC[C@]2(C)C(c3cccnc3)=CC[C@@H]12 [ABIRATERONE] |  | > 30 | > 10 | > 10 | > 30 | > 30 | > 10 | > 30 | > 30 | > 30 |  |  |  |  |
| CN(C)C(=O)Oc1cc(OC(=O)N(C)C)cc(C(O)CNC(C)(C)C)c1 (centres undefined) [BAMBUTEROL] |  | > 30 | > 30 |  |  |  |  | > 30 |  |  |  |  |  |  |
| C[C@H]1C[C@H]2[C@@H]3CCC4=CC(=O)C=C[C@]4(C)[C@@]3(Cl)[C@@H](O)C[C@]2(C)[C@@]1(O)C(=O)CO [BECLOMETHASONE] |  | > 10 | > 10 |  | > 30 |  | > 10 |  | > 30 |  |  |  |  |  |
| C[C@@H](O)[C@H]1C(=O)N2C(C(=O)[O-])=C(SC3Cn4cnc[n+]4C3)[C@H](C)[C@H]12 (some centres undefined) [BIAPENEM] | > 30 |  |  |  |  |  |  |  |  |  |  |  |  |  |
| Cc1nnc(SCC2=C(C(=O)O)N3C(=O)[C@@H](NC(=O)Cn4cc(Cl)c(=O)c(Cl)c4)[C@H]3SC2)s1 [CEFAZEDONE] | > 30 |  |  |  |  |  |  |  |  |  |  |  |  |  |
| NS(=O)(=O)c1cc(C2(O)NC(=O)c3ccccc32)ccc1Cl (centres undefined) [CHLORTHALIDONE] |  | > 10 |  |  | > 30 |  | > 10 | > 10 | > 10 |  | > 30 |  |  |  |
| C[C@@H]1CCC[C@H](C)N1NC(=O)c1ccc(Cl)c(S(N)(=O)=O)c1 [CLOPAMIDE] |  | > 30 | > 30 | > 30 |  | > 30 |  | > 30 |  | > 30 | > 30 | > 30 | > 30 | > 30 |
| COc1ccc2c(c1)[C@]13CCCC[C@@H]1[C@H](C2)N(C)CC3 [DEXTROMETHORPHAN] |  |  | > 10 |  | 2.7 |  | > 10 | > 30 | > 30 |  | > 30 |  |  |  |
| O=c1oc2ccccc2c(O)c1Cc1c(O)c2ccccc2oc1=O [DICUMAROL] |  | > 10 |  |  | > 30 |  | > 10 |  | > 10 |  | > 30 |  |  |  |
| CCn1cc(C(=O)O)c(=O)c2cc(F)c(N3CCNCC3)nc21 [ENOXACIN] |  | > 10 | > 10 |  | > 10 |  | > 10 |  | > 30 |  |  |  |  |  |
| O=C(O)CSCC(=O)NC1CCSC1=O (centres undefined) [ERDOSTEINE] |  | > 30 | > 30 | > 30 |  | > 30 |  |  |  | > 30 | > 30 | > 30 | > 30 | > 30 |
| COc1cccc(N(C)C(=S)Oc2ccc3c(c2)CCCC3)n1 [LIRANAFTATE] |  | > 30 | > 30 | > 30 |  | > 30 |  |  |  | > 30 | > 30 | > 30 | > 30 | > 30 |
| C#C[C@]1(O)CC[C@H]2[C@@H]3CCc4cc(OC)ccc4[C@H]3CC[C@@]21C [MESTRANOL] |  | 10.9 |  |  | > 30 |  | > 10 | 0.516 | > 10 |  | > 30 |  |  |  |
| N=C(N)c1ccc2cc(OC(=O)c3ccc(N=C(N)N)cc3)ccc2c1 [NAFAMOSTAT] |  |  | 7.9 | 12 |  | 8.2 |  |  |  | 15 | > 30 | > 30 | 15 | > 30 |
| c1ccc2c(CC3=NCCN3)cccc2c1 [NAPHAZOLINE] |  |  |  | 0.19 |  |  |  |  |  |  |  | 0.0006 |  |  |
| CNC(=O)Oc1ccc2c(c1)[C@]1(C)CCN(C)[C@@H]1N2C [PHYSOSTIGMINE] |  | > 30 | 16 |  |  |  |  | > 30 |  |  | > 30 | > 30 | > 30 | > 30 |
| O=C(O)c1cc(O)c2c3nc4ccccc4oc-3cc(=O)c2n1 [PIRENOXINE] |  | > 30 | > 30 | 3.8 |  | > 30 |  | > 30 |  | 2.2 | > 30 | > 30 | > 30 | > 30 |
| NS(=O)(=O)c1cc(C(=O)O)cc(N2CCCC2)c1Oc1ccccc1 [PIRETANIDE] |  | > 30 | > 30 | > 30 |  | 0.92 |  | > 30 |  | > 30 | > 30 |  |  | > 30 |
| CNCCCC1c2ccccc2C=Cc2ccccc21 [PROTRIPTYLINE] |  |  |  |  | > 10 |  | > 10 | > 10 | > 10 |  |  |  |  |  |
| CC(C)=CCOc1ccc(/C=C/C(=O)c2ccc(OCC=C(C)C)cc2OCC(=O)O)cc1 [SOFALCONE] |  | 26 | > 30 | > 30 |  | > 30 |  | > 30 |  | > 30 | > 30 | > 30 | 25 | 11 |
| O=C(CCCN1CCC2(CC1)C(=O)NCN2c1ccccc1)c1ccc(F)cc1 [SPIPERONE] |  |  | 9.2 | 2.25 |  | 0.0086 |  | > 30 |  | > 30 |  | 11.8 | 1.6 | > 30 |
| CCSc1ccc2c(c1)N(CCCN1CCN(C)CC1)c1ccccc1S2 [THIETHYLPERAZINE] |  | 9.6 |  |  |  |  |  |  |  |  |  | > 30 | 1.6 |  |
| CN(C)c1cc(NC(=O)CNC(C)(C)C)c(O)c2c1C[C@H]1C[C@H]3[C@H](N(C)C)C(O)=C(C(N)=O)C(=O)[C@@]3(O)C(O)=C1C2=O [TIGECYCLINE] |  | > 30 | > 30 | > 30 |  | > 30 | > 30 | > 30 | > 30 | > 30 | > 30 |  |  |  |
| OCCN1CCN(CC/C=C2/c3ccccc3Sc3ccc(Cl)cc32)CC1 [ZUCLOPENTHIXOL] |  | 17.4 |  | 0.32 | > 10 | 8.4 | > 10 | > 10 | > 10 | > 10 | > 30 |  |  |  |
